Assay results: US9669034B2, “4-aryl-N-phenyl-1,3,5-triazin-2-amines containing a sulfoximine group” (BAYER INTELLECTUAL PROPERTY GMBH, priority 2011, dated 2017)
Values after ≈ are worked out from the molar mass of the structure shown. Where two headings read alike, the source gives them in different places.

Experiments:
[1] = target: CDK9/CycT1 (Homo sapiens (Human), UniProt P50750); test: CDK9/CycT1 kinase assay (TR-FRET); format: biochemical; settings: Method 1
Summary of the method: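 TR-FRET read-out of kinase inhibition, with a biotin-Ttds-tagged peptide as substrate. Enzyme: human CDK9 and CycT1, full-length with His tags, produced in insect cells and purified on Ni-NTA.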

[2] = Equilibrium shake flask solubility assay; format: physicochemical; settings: pH 6.5, equilibrium shake flask method; for solubility thermodynamic at 24 h: phosphate buffer, pH 6.5, aqueous buffer, thermodynamic from solid, water
Description: 4. Equilibrium Shake Flask Solubility Assay:
The thermodynamic solubility of compounds in water was determined by an equilibrium shake flask method (see for example: E. H. Kerns, L. Di: Drug-like Properties: Concepts, Structure Design and Methods, 276-286, Burlington, Mass., Academic Press, 2008). A saturated solution of the drug was prepared and the solution was mixed for 24 h to ensure that equilibrium was reached. The solution was centrifuged to remove the insoluble fraction and the concentration of the compound in solution was determined using a standard calibration curve.
To prepare the sample, 2 mg solid compound was weighed in a 4 mL glass vial. 1 mL phosphate buffer pH 6.5 was added. The suspension was stirred for 24 hrs at room temperature. The solution was centrifuged afterwards. To prepare the sample for the standard calibration, 2 mg solid sample was dissolved in 30 mL acetonitrile. After sonification the solution was diluted with water to 50 mL. Sample and standards were quantified by HPLC with UV-detection. For each sample two injection volumes (5 and 50 μl) in triplicates were made. Three injection volumes (5 μl, 10 μl and 20 μl) were made for the standard.
Chromatographic Conditions:
The areas of sample- and standard injections as well as the calculation of the solubility value (in mg/l) were determined by using HPLC software (Waters Empower 2 FR).

[3] = target: CDK2/CycE (Homo sapiens (Human), UniProt P24941); test: CDK2/CycE kinase assay (TR-FRET); format: biochemical; settings: Method 2
Summary of the method: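 TR-FRET measurement of inhibition of phosphorylation of a biotinylated peptide substrate. Enzyme complex consisted of human CDK2 and CycE, each as a GST fusion made in Sf9 cells and purified over glutathione-Sepharose.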

[4] = tested on: HeLa human cervical tumour cells; test: Proliferation assay (crystal violet), HeLa; format: cell-based; settings: Method 3, read-out: Inhibition of HeLa cell proliferation, IC50
Summary of the method: (§1)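 First, plate 3000 (NCI-H460, HeLa), 5000 (HeLa-MaTu-ADR) or 1500 (Caco-2) cells per well; next day, fix and stain a reference plate while the others get fresh medium containing compound at […] with 0.5% DMSO; after 4 days, fix, stain with crystal violet and read at 595 nm.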

[5] = tested on: B16F10 mouse melanoma cells; test: Proliferation assay (crystal violet), B16F10; format: cell-based; settings: Mus musculus, B16-F10, B16F10 cells, Method 3; read-out: Inhibition of B16F10 cell proliferation, IC50
Summary of the method: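 Proliferation was read out by crystal violet staining. Cells were fixed for 15 minutes at room temperature with 20 μL of 11% glutaric aldehyde, washed three times with water, dried, and stained with 100 μL of 0.1% crystal violet (pH 3.0). After washing and drying, the dye was dissolved in 100 μL of 10% acetic acid and absorbance measured at 595 nm. Values were normalized to the zero-point plate (0%) and untreated cells (100%), and IC50 was obtained by a 4 parameter fit.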

[6] = tested on: NCI-H460, human non-small cell lung carcinoma cells; test: Proliferation assay (crystal violet), NCI-H460; format: cell-based; settings: Homo sapiens, NCI-H460, NCI-H460 cells, Method 3; read-out: Inhibition of NCI-H460 cell proliferation, IC50
Summary of the method: as §1

[7] = tested on: HeLa-MaTu-ADR, multidrug-resistant human cervical carcinoma cells; test: Proliferation assay (crystal violet), HeLa-MaTu-ADR; format: cell-based; settings: Homo sapiens, HeLa, Method 3, read-out: Inhibition of HeLa/MaTu/ADR cell proliferation, IC50
Summary of the method: as §1

[8] = tested on: Caco-2 human colorectal carcinoma; test: Proliferation assay (crystal violet), Caco-2; format: cell-based; settings: Homo sapiens, Caco-2, Caco-2 cells, Method 3; read-out: Inhibition of Caco-2 cell proliferation, IC50
Summary of the method: as §1

[9] = tested on: DU145, hormone-independent human prostate carcinoma cells; test: Proliferation assay (crystal violet), DU145; format: cell-based; settings: Homo sapiens, DU-145, DU145 cells, Method 3; read-out: Inhibition of DU145 cell proliferation, IC50
Summary of the method: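 Proliferation of DU145 cells was measured with crystal violet. Cells were fixed with 20 μL 11% glutaric aldehyde for 15 minutes, washed, dried, stained with 100 μL 0.1% crystal violet (pH 3.0), washed again, and the dye was dissolved in 10% acetic acid. Absorbance at 595 nm was normalized to the zero-point plate and untreated cells, and IC50 came from a 4 parameter fit.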

[10] = target: human carbonic anhydrase-1 (Homo sapiens (Human), UniProt P00915); test: Carbonic anhydrase assay, carbonic anhydrase-1; format: biochemical; settings: read-out: Inhibition of Carbonic anhydrase-1: IC50
Chain of human carbonic anhydrase-1 (P00915 whole entry): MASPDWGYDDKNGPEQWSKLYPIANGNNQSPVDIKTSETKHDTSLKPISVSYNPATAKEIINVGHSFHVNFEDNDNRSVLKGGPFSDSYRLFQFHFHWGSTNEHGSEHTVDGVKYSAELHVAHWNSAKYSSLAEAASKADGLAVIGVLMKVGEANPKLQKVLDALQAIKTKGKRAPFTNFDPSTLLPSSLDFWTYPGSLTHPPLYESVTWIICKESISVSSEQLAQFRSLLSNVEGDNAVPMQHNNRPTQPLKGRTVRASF
Description: (§2) 5. Carbonic Anhydrase Assay
(§3) The principle of the assay is based on the hydrolysis of 4-nitrophenyl acetate by carbonic anhydrases (Pocker & Stone, Biochemistry, 1967, 6, 668), with subsequent photometric determination of the dye product 4-nitrophenolate at 400 nm by means of a 96-channel spectral photometer.
(§4) 2 microL of the test compounds, dissolved in DMSO (100-fold final concentration), in a concentration range of 0.03-10 micromol/L (final), was pipetted as quadruplicates into the wells of a 96-hole microtiter plate. Wells that contained the solvent without test compounds were used as reference values (1. Wells without carbonic anhydrase for correction of the non-enzymatic hydrolysis of the substrate, and 2. Wells with carbonic anhydrase for determining the activity of the non-inhibited enzyme).
(§5) 188 microL of assay buffer (10 millimol/L of Tris/HCl, pH 7.4, 80 millimol/L of NaCl), with or without 3 units/well of carbonic anhydrase-1 [=human carbonic anhydrase-1 (Sigma, #C4396)] in order to determine carbonic anhydrase-1 inhibition or 3 units/well of carbonic anhydrase-2 [=human carbonic anhydrase-2 (Sigma, #C6165)] for measuring carbonic anhydrase-2 inhibition, was pipetted into the wells of the microtiter plate. […] IC50 values were determined by means of a 4 parameter fit.

[11] = target: human carbonic anhydrase-2 (Homo sapiens (Human), UniProt P00918); test: Carbonic anhydrase assay, carbonic anhydrase-2; format: biochemical; settings: read-out: Inhibition of Carbonic anhydrase-2: IC50
Description: as §2, §3, §4, §5

Chain of CDK9/CycT1 (P50750 whole entry): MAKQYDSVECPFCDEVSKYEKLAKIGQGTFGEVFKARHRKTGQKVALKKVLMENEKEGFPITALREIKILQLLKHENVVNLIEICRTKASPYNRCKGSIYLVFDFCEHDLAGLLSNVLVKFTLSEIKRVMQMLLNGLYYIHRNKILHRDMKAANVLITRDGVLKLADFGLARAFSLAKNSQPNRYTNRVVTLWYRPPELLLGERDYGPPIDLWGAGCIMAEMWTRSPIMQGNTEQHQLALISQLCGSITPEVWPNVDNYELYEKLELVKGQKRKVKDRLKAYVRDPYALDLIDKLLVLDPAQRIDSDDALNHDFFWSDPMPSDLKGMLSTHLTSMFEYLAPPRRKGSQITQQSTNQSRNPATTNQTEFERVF
Chain of CDK9/CycT1 (O60563 whole entry partner): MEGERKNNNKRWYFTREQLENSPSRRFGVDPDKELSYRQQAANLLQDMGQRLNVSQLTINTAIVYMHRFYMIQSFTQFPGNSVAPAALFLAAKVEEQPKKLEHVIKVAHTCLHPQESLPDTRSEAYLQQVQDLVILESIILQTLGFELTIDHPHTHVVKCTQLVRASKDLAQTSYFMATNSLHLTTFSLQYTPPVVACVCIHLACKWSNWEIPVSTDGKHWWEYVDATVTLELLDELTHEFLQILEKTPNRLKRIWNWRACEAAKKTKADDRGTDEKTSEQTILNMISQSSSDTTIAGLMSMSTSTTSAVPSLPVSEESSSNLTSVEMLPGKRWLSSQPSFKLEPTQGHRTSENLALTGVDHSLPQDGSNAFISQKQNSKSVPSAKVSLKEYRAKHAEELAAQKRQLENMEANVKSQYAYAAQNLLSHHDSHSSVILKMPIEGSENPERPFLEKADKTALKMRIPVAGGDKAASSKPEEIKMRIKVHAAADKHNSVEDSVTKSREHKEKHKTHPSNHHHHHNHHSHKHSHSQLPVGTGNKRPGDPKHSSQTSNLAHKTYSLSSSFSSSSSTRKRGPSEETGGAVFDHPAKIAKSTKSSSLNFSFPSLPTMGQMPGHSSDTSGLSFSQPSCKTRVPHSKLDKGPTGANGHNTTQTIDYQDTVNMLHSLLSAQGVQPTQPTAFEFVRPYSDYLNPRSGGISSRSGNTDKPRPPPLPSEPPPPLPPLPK

Structure (SMILES): CS(=N)(=O)Cc1cccc(Nc2ncnc(-c3cccc4c3OCCO4)n2)c1 (single isomer, unassigned) [Example 40, 4-(2,3-Dihydro-1,4-benzodioxin-5-yl)-N-{3-[(S-methylsulfonimidoyl)methyl]phenyl}-1,3,5-triazin-2-amine]
- IC50 [1]: 25 nM
- Thermodynamic solubility in water at pH 6.5 [2]: 865 mg/l
- IC50 [3]: 1800 nM
- IC50 [4]: 1100 nM

Structure (SMILES): CCCOc1cc(F)ccc1-c1ncnc(Nc2cccc(CS(C)(=N)=O)c2)n1 (racemic) [Example 91, (rac)-4-(4-Fluoro-2-propoxyphenyl)-N-{3-[(S-methylsulfonimidoyl)methyl]phenyl}-1,3,5-triazin-2-amine]
- IC50 [1]: 29 nM
- solubility thermodynamic at 24 h [2]: 104 µg/mL (≈ 250 µM)
- IC50 [3]: 2300 nM
- IC50 ([4]; Homo sapiens, HeLa): 1100 nM

Structure (SMILES): COc1cc(F)c(F)cc1-c1ncnc(Nc2cccc(CS(C)(=N)=O)c2)n1 (racemic) [Example 10, (rac)-4-(4,5-Difluoro-2-methoxyphenyl)-N-{3-[(S-methylsulfonimidoyl)methyl]phenyl}-1,3,5-triazin-2-amine]
- IC50 [1]: 28 nM
- solubility thermodynamic at 24 h [2]: 130 µg/mL (≈ 321 µM)
- IC50 [3]: 1300 nM
- IC50 ([4]; Homo sapiens, HeLa): 1100 nM

Structure (SMILES): C#CCOc1cc(F)ccc1-c1ncnc(Nc2cccc(CS(C)(=N)=O)c2)n1 (racemic) [Example 77, (rac)-4-[4-Fluoro-2-(prop-2-yn-1-yloxy)phenyl]-N-{3-[(S-methylsulfonimidoyl)methyl]phenyl}-1,3,5-triazin-2-amine]
- IC50 [5]: 520 nM
- IC50 [1]: 15 nM
- IC50 [6]: 560 nM
- solubility thermodynamic at 24 h [2]: 256 µg/mL (≈ 622 µM)
- IC50 [3]: 1600 nM
- IC50 [7]: 630 nM
- IC50 [8]: 300 nM
- IC50 [9]: 480 nM
- IC50 ([4]; Homo sapiens, HeLa): 470 nM

Structure (SMILES): CNC(=O)N=S(C)(=O)Cc1cccc(Nc2ncnc(-c3ccc(F)cc3OC)n2)c1 (single isomer, unassigned; (+)) [Example 17, (+)-1-[(3-{[4-(4-Fluoro-2-methoxyphenyl)-1,3,5-triazin-2-yl]amino}benzyl)(methyl)oxido-λ^6-sulfanylidene]-3-methylurea]
- IC50 [5]: 410 nM
- IC50 [1]: 14 nM
- IC50 [6]: 540 nM
- Thermodynamic solubility in water at pH 6.5 [2]: 429 mg/l
- IC50 [3]: 1200 nM
- IC50 [7]: 600 nM
- IC50 [8]: 800 nM
- IC50 [9]: 580 nM
- IC50 [4]: 580 nM

Structure (SMILES): CC#CCOc1cc(F)ccc1-c1ncnc(Nc2cccc(CS(C)(=N)=O)c2)n1 (racemic) [Example 73, (rac)-4-[2-(But-2-yn-1-yloxy)-4-fluorophenyl]-N-{3-[(S-methylsulfonimidoyl)methyl]phenyl}-1,3,5-triazin-2-amine]
- IC50 [5]: 150 nM
- IC50 [1]: 8 nM
- IC50 [6]: 260 nM
- solubility thermodynamic at 24 h [2]: 1220 µg/mL (≈ 2870 µM)
- IC50 [3]: 820 nM
- IC50 [7]: 280 nM
- IC50 [8]: 300 nM
- IC50 [9]: 200 nM
- IC50 ([4]; Homo sapiens, HeLa): 240 nM

Structure (SMILES): CS(=N)(=O)Cc1cccc(Nc2ncnc(-c3cccc4c3OCCO4)n2)c1 (single isomer, unassigned) [Example 39, 4-(2,3-Dihydro-1,4-benzodioxin-5-yl)-N-{3-[(S-methylsulfonimidoyl)methyl]phenyl}-1,3,5-triazin-2-amine]
- IC50 [1]: 29 nM
- solubility thermodynamic at 24 h [2]: 819 µg/mL (≈ 2060 µM)
- IC50 [3]: 1500 nM
- IC50 ([4]; Homo sapiens, HeLa): 1100 nM

Structure (SMILES): COc1cc(F)ccc1-c1ncnc(Nc2cccc(CS(C)(=N)=O)c2)n1 (single isomer, unassigned; (-)) [Example 3, (−)-4-(4-Fluoro-2-methoxyphenyl)-N-{3-[(S-methylsulfonimidoyl)methyl]phenyl}-1,3,5-triazin-2-amine]
- IC50 [10]: > 10000 nM
- solubility thermodynamic at 24 h [2]: 601 µg/mL (≈ 1550 µM)
- IC50 [11]: > 10000 nM

Structure (SMILES): CCOc1cc(F)ccc1-c1ncnc(Nc2cccc(CS(C)(=N)=O)c2)n1 (racemic) [Example 88, (rac)-4-(2-Ethoxy-4-fluorophenyl)-N-{3-[(S-methylsulfonimidoyl)methyl]phenyl}-1,3,5-triazin-2-amine]
- IC50 [5]: 810 nM
- IC50 [1]: 11 nM
- IC50 [6]: 890 nM
- solubility thermodynamic at 24 h [2]: 884 µg/mL (≈ 2200 µM)
- IC50 [3]: 1300 nM
- IC50 [7]: 700 nM
- IC50 [8]: 780 nM
- IC50 [9]: 730 nM
- IC50 ([4]; Homo sapiens, HeLa): 380 nM

Structure (SMILES): COc1cc(F)ccc1-c1ncnc(Nc2cccc(CS(C)(=O)=NC#N)c2)n1 (single isomer, unassigned) [Example 49, [(3-{[4-(4-fluoro-2-methoxyphenyl)-1,3,5-triazin-2-yl]amino}benzyl)(methyl)oxido-λ^6-sulfanylidene]cyanamide]
- IC50 [1]: 7 nM
- solubility thermodynamic at 24 h [2]: 88 µg/mL (≈ 213 µM)
- IC50 [3]: 650 nM

Structure (SMILES): COc1cc(F)ccc1-c1ncnc(Nc2cccc(CS(C)(=O)=NC#N)c2)n1 (single isomer, unassigned) [Example 50, [(3-{[4-(4-fluoro-2-methoxyphenyl)-1,3,5-triazin-2-yl]amino}benzyl)(methyl)oxido-λ^6-sulfanylidene]cyanamide]
- IC50 [5]: 250 nM
- IC50 [1]: 7 nM
- IC50 [6]: 310 nM
- Thermodynamic solubility in water at pH 6.5 [2]: 126 mg/l
- IC50 [3]: 430 nM
- IC50 [7]: 190 nM
- IC50 [8]: 350 nM
- IC50 [9]: 140 nM
- IC50 ([4]; Homo sapiens, HeLa): 260 nM

Structure (SMILES): COc1cc(F)ccc1-c1ncnc(Nc2cccc(CS(C)(=N)=O)c2)n1 (single isomer, unassigned; (+)) [Example 4, (+)-4-(4-Fluoro-2-methoxyphenyl)-N-{3-[(S-methylsulfonimidoyl)methyl]phenyl}-1,3,5-triazin-2-amine]
- IC50 [10]: > 10000 nM
- IC50 [11]: > 10000 nM

Structure (SMILES): CNC(=O)N=S(C)(=O)Cc1cccc(Nc2ncnc(-c3ccc(F)cc3OC)n2)c1 (single isomer, unassigned; (-)) [Example 16, (−)-1-[(3-{[4-(4-Fluoro-2-methoxyphenyl)-1,3,5-triazin-2-yl]amino}benzyl)(methyl)oxido-λ^6-sulfanylidene]-3-methylurea]
- IC50 [1]: 19 nM
- solubility thermodynamic at 24 h [2]: 323 µg/mL (≈ 727 µM)
- IC50 [3]: 1100 nM
- IC50 ([4]; Homo sapiens, HeLa): 950 nM
